The experiment addresses hNav1.7 (Homo sapiens, UniProt Q15858). As to the kind of experiment: Voltage-dependent inhibition of the Nav1.7 sodium channel. It counts as cell-based. Conditions: voltage-dependent block of peak current. The protocol:
HEK-293 cells stably expressing wild-type (WT) hNav1.7 were obtained from Scottish Biomedical (Glasgow, Scotland, United Kingdom). Cells are maintained with standard tissue culture procedures and stable channel expression is maintained with 500 ug/mL G418 in the culture medium. Unless otherwise noted, all reagents are purchased from Sigma-Aldrich (St Louis, Mo., U.S.A.).
Assays measuring Voltage-Dependent Block (VDB) of Nav1.7 are performed on an automated electrophysiology platform, QPatch 16X or QPatch HT (Sophion Bioscience, Copenhagen, Denmark), using the whole cell patch clamp technique to measure currents through the cell membrane. Series resistance compensation is set to 100% and series resistance and whole-cell compensation are performed automatically. Currents stored in the Sophion Bioscience Oracle database (Sophion Bioscience, Copenhagen, Denmark). Analysis is performed using QPatch Assay software and data are compiled in Excel 2010 (Microsoft, Seattle, Wash., U.S.A.).
The internal (pipette) solution consists of (in mM) 105 CsF, 10 NaF, 20 CsCl, 2 EGTA, 10 HEPES, 10 Dextrose with a pH of 7.35 and osmolarity of 300 mOsmol/kg. The external (bath) solution contains in (mM): 140 NaCl, 4 KCl, 1.8 CaCl2, 1 MgCl2, 10 dextrose, 10 HEPES, with a pH of 7.35 and osmolarity of 310 mOsmol/kg. Experiments are carried out at 23-25° C.
Compound stocks are routinely made by the Gilead Sample Bank in vials to 10 mM in dimethyl sulfoxide (DMSO). In some cases, when compounds are not soluble in DMSO, they are made in 100% ethanol. Stocks are sonicated as necessary. Compounds are diluted in extracellular solution using a MicroLab Nimbus (Hamilton Robotics, Reno, Nev.) to 1 μM in glass vials and transferred to glass well plates before robotic addition to the cells.
Cells are allowed to stabilize for 10 min after establishment of the whole-cell configuration before current is measured. The test compound is applied 3 times at 120 second intervals to allow for equilibration. Currents were leak subtracted using a P/4 procedure, low-pass Bessel filtered at 5 kHz and digitized at 25 kHz. Results are presented as mean percentage inhibition.
Voltage-dependent block of Nav1.7 peak current was measured during a voltage step to 0 mV (20 ms) following a voltage step pre-conditioning steps (−60 mV for 10 sec followed by −120 mV for 10 ms). The holding potential was −120 mV and this voltage protocol induces half maximal inactivation of Nav1.7. The voltage protocol for VDB was performed every 45 seconds in the absence and presence of compound and percentage inhibition was calculated with respect to the compound free condition.

Sequence of hNav1.7 (Q15858 whole entry): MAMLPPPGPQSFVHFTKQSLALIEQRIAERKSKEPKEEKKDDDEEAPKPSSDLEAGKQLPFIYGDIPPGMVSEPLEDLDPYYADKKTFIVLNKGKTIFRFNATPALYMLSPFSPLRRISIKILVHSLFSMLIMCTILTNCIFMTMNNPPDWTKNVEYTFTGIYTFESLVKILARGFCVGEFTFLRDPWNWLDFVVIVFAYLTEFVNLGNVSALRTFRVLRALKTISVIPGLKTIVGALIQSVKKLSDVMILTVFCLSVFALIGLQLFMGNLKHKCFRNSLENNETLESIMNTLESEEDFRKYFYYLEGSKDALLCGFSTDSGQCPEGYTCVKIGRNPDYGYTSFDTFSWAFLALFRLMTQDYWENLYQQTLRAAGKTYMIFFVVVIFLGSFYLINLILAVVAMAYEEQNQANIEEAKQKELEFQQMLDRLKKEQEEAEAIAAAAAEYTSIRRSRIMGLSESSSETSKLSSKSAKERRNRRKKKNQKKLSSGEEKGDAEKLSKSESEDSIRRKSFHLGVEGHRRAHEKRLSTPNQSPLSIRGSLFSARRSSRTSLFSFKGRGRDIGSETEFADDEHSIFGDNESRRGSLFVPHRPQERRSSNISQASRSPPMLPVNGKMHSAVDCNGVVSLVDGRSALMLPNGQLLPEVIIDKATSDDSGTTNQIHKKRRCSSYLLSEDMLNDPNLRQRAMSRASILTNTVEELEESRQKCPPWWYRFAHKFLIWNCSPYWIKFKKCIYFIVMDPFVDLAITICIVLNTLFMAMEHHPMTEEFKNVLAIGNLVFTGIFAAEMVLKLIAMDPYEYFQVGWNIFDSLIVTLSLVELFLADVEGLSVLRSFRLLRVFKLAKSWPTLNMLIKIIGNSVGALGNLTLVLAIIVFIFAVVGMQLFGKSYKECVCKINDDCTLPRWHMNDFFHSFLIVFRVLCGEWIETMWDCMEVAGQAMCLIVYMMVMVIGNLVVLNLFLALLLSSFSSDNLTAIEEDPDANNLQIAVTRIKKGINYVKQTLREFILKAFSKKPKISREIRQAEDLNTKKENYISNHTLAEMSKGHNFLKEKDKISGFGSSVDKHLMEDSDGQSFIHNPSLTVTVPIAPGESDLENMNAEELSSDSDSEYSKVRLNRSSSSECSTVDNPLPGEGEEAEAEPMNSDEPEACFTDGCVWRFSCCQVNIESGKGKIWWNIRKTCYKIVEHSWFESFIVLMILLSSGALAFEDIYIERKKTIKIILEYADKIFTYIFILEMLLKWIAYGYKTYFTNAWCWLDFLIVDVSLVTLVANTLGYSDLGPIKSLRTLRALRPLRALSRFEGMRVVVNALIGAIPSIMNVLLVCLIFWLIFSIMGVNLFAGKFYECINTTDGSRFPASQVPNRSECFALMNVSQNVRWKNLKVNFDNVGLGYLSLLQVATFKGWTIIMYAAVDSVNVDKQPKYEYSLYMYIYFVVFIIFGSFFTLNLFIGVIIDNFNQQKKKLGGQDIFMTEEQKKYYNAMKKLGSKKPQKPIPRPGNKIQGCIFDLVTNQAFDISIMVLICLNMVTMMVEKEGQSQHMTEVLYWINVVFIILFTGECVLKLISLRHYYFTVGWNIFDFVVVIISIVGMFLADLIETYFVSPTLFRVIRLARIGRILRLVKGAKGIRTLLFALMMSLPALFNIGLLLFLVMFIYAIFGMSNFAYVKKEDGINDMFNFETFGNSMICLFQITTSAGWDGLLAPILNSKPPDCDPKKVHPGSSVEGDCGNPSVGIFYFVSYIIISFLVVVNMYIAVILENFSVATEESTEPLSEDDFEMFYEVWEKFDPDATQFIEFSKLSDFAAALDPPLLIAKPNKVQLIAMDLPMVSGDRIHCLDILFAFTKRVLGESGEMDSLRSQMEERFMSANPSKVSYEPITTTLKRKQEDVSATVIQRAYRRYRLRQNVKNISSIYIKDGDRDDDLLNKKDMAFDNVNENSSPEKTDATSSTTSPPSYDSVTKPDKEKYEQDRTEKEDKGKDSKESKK

For the molecule `Cc1cc(OC(F)(F)F)ccc1-c1cc2c(OCc3ncccn3)noc2cc1C` [Example 29, 6-methyl-5-(2-methyl-4-(trifluoromethoxy)phenyl)-3-(pyrimidin-2-ylmethoxy)benzo[d]isoxazole], the “Nav 1.7-VDB 1 uM” value worked out at 34.2 percentage inhibition.
